Results reported in ChEMBL document CHEMBL1130012 (J Med Chem, 1997).

How the values were obtained:
[1] = molecular target: T1, Muscarinic acetylcholine receptor M2 (Rattus norvegicus, UniProt P10980); assay: Binding affinity towards rat Muscarinic acetylcholine receptor M2 was determined
T1 sequence (P10980 whole entry): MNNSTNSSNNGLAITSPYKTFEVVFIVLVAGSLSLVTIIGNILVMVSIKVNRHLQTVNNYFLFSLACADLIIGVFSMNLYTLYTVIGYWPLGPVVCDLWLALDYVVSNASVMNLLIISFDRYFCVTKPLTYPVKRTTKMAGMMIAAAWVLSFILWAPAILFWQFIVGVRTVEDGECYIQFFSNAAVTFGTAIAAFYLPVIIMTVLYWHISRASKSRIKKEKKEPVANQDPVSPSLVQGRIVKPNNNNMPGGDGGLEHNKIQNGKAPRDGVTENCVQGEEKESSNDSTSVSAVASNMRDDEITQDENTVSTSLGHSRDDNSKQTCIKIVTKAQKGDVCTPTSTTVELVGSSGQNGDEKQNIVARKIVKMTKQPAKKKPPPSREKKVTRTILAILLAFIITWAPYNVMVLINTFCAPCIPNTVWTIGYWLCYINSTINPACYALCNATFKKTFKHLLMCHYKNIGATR

[2] = molecular target: T2, Muscarinic acetylcholine receptor M1 (Rattus norvegicus, UniProt P08482); assay: Binding affinity towards rat Muscarinic acetylcholine receptor M1 was determined
T2 sequence (P08482 whole entry): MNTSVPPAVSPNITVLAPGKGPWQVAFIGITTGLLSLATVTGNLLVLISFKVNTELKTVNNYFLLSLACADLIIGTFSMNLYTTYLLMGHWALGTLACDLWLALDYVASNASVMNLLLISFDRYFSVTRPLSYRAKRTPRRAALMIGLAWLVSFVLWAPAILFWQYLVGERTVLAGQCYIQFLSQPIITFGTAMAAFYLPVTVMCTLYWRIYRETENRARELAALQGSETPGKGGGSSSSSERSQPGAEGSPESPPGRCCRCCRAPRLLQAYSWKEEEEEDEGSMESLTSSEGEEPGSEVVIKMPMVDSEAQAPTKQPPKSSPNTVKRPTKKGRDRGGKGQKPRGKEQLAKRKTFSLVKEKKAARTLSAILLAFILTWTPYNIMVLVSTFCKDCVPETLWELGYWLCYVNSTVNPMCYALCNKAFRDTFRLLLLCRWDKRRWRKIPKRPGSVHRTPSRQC

[3] = molecular target: Muscarinic acetylcholine receptor M3 (Rattus norvegicus) (UniProt P08483); assay: Binding affinity towards Muscarinic acetylcholine receptor M3 was determined in rat pancreas
Chain of Muscarinic acetylcholine receptor M3 (Rattus norvegicus) (P08483 whole entry, looked up): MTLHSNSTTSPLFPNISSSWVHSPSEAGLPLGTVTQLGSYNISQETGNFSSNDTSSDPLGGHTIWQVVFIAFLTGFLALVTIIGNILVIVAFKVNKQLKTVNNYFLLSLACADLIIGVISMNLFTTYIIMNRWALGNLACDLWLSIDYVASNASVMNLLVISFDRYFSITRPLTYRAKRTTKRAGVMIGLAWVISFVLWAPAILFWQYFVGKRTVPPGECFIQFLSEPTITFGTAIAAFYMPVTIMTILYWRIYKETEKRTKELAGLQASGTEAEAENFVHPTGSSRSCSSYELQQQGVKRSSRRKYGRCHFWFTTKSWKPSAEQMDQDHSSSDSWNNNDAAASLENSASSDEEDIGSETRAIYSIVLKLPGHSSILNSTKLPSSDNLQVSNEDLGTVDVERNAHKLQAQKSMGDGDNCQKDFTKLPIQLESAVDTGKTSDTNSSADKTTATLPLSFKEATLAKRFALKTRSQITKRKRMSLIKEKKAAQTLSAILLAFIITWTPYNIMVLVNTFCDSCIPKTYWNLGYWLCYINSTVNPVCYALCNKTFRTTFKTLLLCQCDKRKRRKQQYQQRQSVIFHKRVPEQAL

`C[N+]12CCC(CC1)[C@@H](OC(=O)C(O)(c1ccccc1)c1ccccc1)C2` gave a Ki [1] of 0.43 nM, a Ki [2] of 0.13 nM and a Ki [3] of 0.65 nM.
